Columns and labels:
HIF-1 target genes = experiment: Expression of HIF-1 target genes in rat cerebral cortex (real time RT-PCR); format: in vivo; settings: 100 mg/kg i.p., Sprague Dawley rats, FIG. 4
Description: HIF-1α protein levels were determined in nuclear extracts using a monoclonal anti-HIF-1α antibody (NOVUS Biologicals). Real time RT-PCR was performed in a ABI-7500 instruments using commercial Taqman gene expression assays (Applied BioSystems). Male Sprague Dawley rats, weighing 275-350 gm, were used in these experiments. For surgical procedures, anesthesia was induced with 5% isofluorane delivered in oxygen and maintained at 1.5% throughout surgery. Core body temperature was maintained at 37° C. by a homeothermic heating blanket. Animals were subjected to MCAo by the intraluminal filament method. The right external carotid artery was ligated, cauterized, and cut, and its branches were coagulated. A 35 mm length of 4-0 nylon monofilament (Ethicon) with a rounded tip was then inserted into the internal carotid artery via the proximal end of the external carotid artery stump. The filament was advanced 20 mm beyond the carotid artery bifurcation with slight resistance was encountered. The tilorone analogues R-10,874-DA, R-11,567-DA, and R-9536-DA were injected 100 mg/kg i.p. 24 h pre-MCAo. Equivalent volume of saline was injected i.p. to control rats. Animals were sacrificed 24 h post-MCAo.

HIF-1 = experiment: HIF-luciferase reporter (enolase 1 promoter-luciferase) in stably transfected HT22 cells; format: cell-based; settings: HT22 murine hippocampal cells, FIG. 3
Description: HT22 murine hippocampal cells were stably transfected with an enolase 1 promoter-luciferase reporter construct and selected with puromycin. Tilorone analogues R-10,874-DA, R-11,567-DA, and R-9536-DA were tested for their ability to activate a HIF-luciferase reporter. Luciferase activity was measured using a Luciferase Assay System (PROMEGA) according to the manufacture's protocol.

[1] = tested on: hypoxia response element regulated reporter gene; experiment: Hypoxia response element (enolase promoter) luciferase reporter in cortical neurons; format: cell-based, rat; settings: 40 μM, positive control, FIG. 5
Description: FIG. 5. A cell permeant, peptide inhibitor of the HIF prolyl 4-hydroxylase, but not a mutant control, induces expression of HIF-dependent genes. […] The low molecular weight P4H inhibitor, FG-0041 (40 μM) was used as a positive control. To determine whether the Tat-HIF/ODD/wt peptide stabilizes HIF-1 leading to activation of HIF-1 dependent gene expression, the levels of a luciferase reporter gene that is regulated by a hypoxia response element found in the enolase gene promoter was monitored.

induction of the HIF-dependent reporter gene [1] | Compound | expression of HIF-1 target genes in the rat cerebral cortex (HIF-1 target genes) | HIF-1 transcriptional activity (HIF-luciferase reporter) (HIF-1)
 | CN(C)CCOc1ccc2c(=O)c3ccc(OCCN(C)C)cc3oc2c1.Cl.Cl [R-10,874-DA, 3,6-bis[2-(dimethylamino)ethoxy]-9h-xanthen-9-one dihydrochloride] | induce the expression of HIF-1 target genes | increase HIF-1 transcriptional activity
stimulated | O=C(O)c1c[nH]c2c(ccc3cccnc32)c1=O [FG-0041] |  | 
 | CN(C)CC(=O)c1ccc2oc3ccc(C(=O)CN(C)C)cc3c2c1.Cl.Cl.O [R-11,567-DA, 2,8-bis[dimethylaminoacetyl]dibenzofurin dihydrochloride hydrate] | induce the expression of HIF-1 target genes | increase HIF-1 transcriptional activity
